Data on one compound can be found in patent publication US20140121181A1, “HYDROPHOBIC POLYMER COMPOUND HAVING ANTICOAGULANT EFFECT” (TORY INDUSTRIES, INC., priority 2011, published 2014).

In the assay the test system is citric acid-supplemented blood collected from a volunteer. Put plainly: Measurement of whole blood coagulation time (Sonoclot, ACT ONSET value). Further details: species or system human. The procedure: In a cuvette (Non-activated Clotting Test Kit), 18 μL of physiological saline was placed and 14.8 μL of calcicol was added thereto, followed by further addition of 342 μL of the thus obtained citric acid-supplemented blood. The resulting mixture was measured using a Sonoclot blood coagulation/platelet function analyzer (IMI Co., Ltd.) and the measured ACT ONSET value was defined as the whole blood coagulation time.

In the case of `CC1CNc2c(cccc2S(=O)(=O)N[C@@H](CCCNC(=N)N)C(=O)N2CC[C@@H](C)C[C@@H]2C(=O)O)C1` (mixture of isomers) [argatroban, (2R,4R)-4-methyl-1-((2S)-2-{[(3RS)-3-methyl-1,2,3,4-tetrahydroquinolin-8-yl]sulfonyl}amino-5-guanidinopentanoyl)piperidine-2-carboxylic acid], the “whole blood coagulation time” value by setting is: (2 μM test solution/dispersion in place of physiological saline) 520 s; (10 μM test solution in place of physiological saline) 734 s; (20 μM test solution in place of physiological saline) 893 s.
